In patent US20100310514A1, “Anti-Inflammatory Bacteria” (priority 2009, published 2010):
Residues, ends and D or L forms follow the SMILES beside them. *: point of attachment. Cbz = O=C(OCc1ccccc1)*

Tests used:
AGS and TMK1 cells = details: all LL-37 treatment groups
Protocol: Cell culture and viability assay—The human gastric adenocarcinoma cell line AGS was purchased from American Type Culture Collection (Manassas, Va., USA). The gastric adenocarcinoma cell TMK1 was obtained from Dr. Eiichi Tahara (University of Hiroshima, Hiroshima, Japan). AGS and TMK1 cells were maintained in RPMI 1640 (Invitrogen) containing 10% fetal bovine serum (Invitrogen), 100 U/mL penicillin G, 100 μg/mL streptomycin, and maintained at 37° C., 95% humidity, and 5% carbon dioxide. Cell viability was determined by lactate dehydrogenase release assay (Roche, Indianapolis, Ind., USA).

AGS cells = details: LL-37 20 μg/ml, 24 h
[1] = tested on: Smad1/5, Smad2/3, cyclin E2; assay: Western blot of Smad/BMP signaling proteins in TMK1 cells; format: cell-based, human; details: MG-132, 4 h (1 μmol/L in FIG. 6)
[2] = tested on: Smad6, Smad7, p21Waf1/Cip1, p15Ink4a, p27Kip1, BMP ligands; assay: RT-PCR / real-time PCR mRNA expression in TMK1 cells; format: cell-based, human; details: MG-132, 4 h (1 μmol/L in FIG. 6)
[3] = tested on: dextran sodium sulfate-induced ulcerative colitis; assay: DSS-induced ulcerative colitis, oral bacteria given during 7 days of DSS; format: in vivo, Balb/c mice; details: 600 mg/kg orally once daily
Protocol: Male Balb/c mice 6-8 weeks old were used in the following experiments. They were allowed free access to standard laboratory chow and tap water. All animals were housed in an air-conditioned room with controlled temperature (22° C.±1° C.), humidity (65%-70%), and day/night cycle (12:12-hr light: dark). Mice were induced with acute colitis by giving 3% dextran sulfate sodium (DSS, molecular weight, 35-50 kDa) prepared in drinking water for 7 days (from Day 0 to Day 7). Normal control mice received tap water throughout the experiment. […] In a different group of transformed NZ3900, 0.25 ng/ml nisin was added and further incubated for 3 h. Bacteria were then harvested by centrifugation (5000 rpm, 15 min) and washed twice with sterilized PBS (pH 7.4) and resuspended in sterilized water to give 2×10^10 cfu/ml. Mice were given intragastrically (i.g.) with 0.5 ml (1×10^10 cfu) bacteria once daily at the beginning of the DSS feeding. Animals were sacrificed at the end of 7 days DSS drinking and bacteria feeding. Colonic myeloperoxidase (MPO) was measured as described previously (Guo X, et al. Gastroenterology 117, 884-892 (1999)). In brief, colon tissues were homogenized in an ice-cold […] PBS (pH 6.0) solution with 0.5% hexa-decyl-trimethyl-ammonium bromide. The homogenate was freeze-thawed three times, followed by repeated sonication for 60 seconds each and centrifugation for 20 minutes at 14,000 revolutions per minutes at 4° C. The activity of the supernatant was determined spectrophotometrically at 450 nm. The final value was expressed as enzyme units per mg of protein. Crypt loss is a histological finding in colitis. Therefore, histological analysis of mice administered with formulations per FIG. 16. The crypts were graded on a 4 grade scale as follows: Grade 0: intact crypt; Grade 1: loss of the basal ⅓ of the crypt; Grade 2: loss of the basal ⅔ of the crypt; Grade 3: loss of entire crypt with surface epithelium remaining intact; Grade 4: loss of both the entire crypt and surface epithelium.

With `C=C1/C(=C\C=C2/CCC[C@]3(C)[C@@H]([C@H](C)CCCC(C)(C)O)CC[C@@H]23)C[C@@H](O)C[C@@H]1O` [1α,25-dihydroxylvitamin D3] the “TMK1 cell proliferation on induction of endogenous LL-37” value (TMK1 cells; 1 μmol/L VD3 for 24 h, read 48 h post-treatment) was “inhibited cell proliferation”.

In the case of `CC[C@H](C)[C@H](NC(=O)[C@H](CCCCN)NC(=O)[C@H](CCC(=O)O)NC(=O)[C@H](CCCCN)NC(=O)[C@H](CO)NC(=O)[C@H](CCCCN)NC(=O)[C@H](CCCNC(=N)N)NC(=O)[C@H](Cc1ccccc1)NC(=O)[C@H](Cc1ccccc1)NC(=O)[C@H](CC(=O)O)NC(=O)CNC(=O)[C@H](CC(C)C)NC(=O)[C@@H](N)CC(C)C)C(=O)NCC(=O)N[C@@H](CCCCN)C(=O)N[C@@H](CCC(=O)O)C(=O)N[C@@H](Cc1ccccc1)C(=O)N[C@@H](CCCCN)C(=O)N[C@@H](CCCNC(=N)N)C(=O)N[C@H](C(=O)N[C@H](C(=O)N[C@@H](CCC(N)=O)C(=O)N[C@@H](CCCNC(=N)N)C(=O)N[C@H](C(=O)N[C@@H](CCCCN)C(=O)N[C@@H](CC(=O)O)C(=O)N[C@@H](Cc1ccccc1)C(=O)N[C@@H](CC(C)C)C(=O)N[C@@H](CCCNC(=N)N)C(=O)N[C@@H](CC(N)=O)C(=O)N[C@@H](CC(C)C)C(=O)N[C@H](C(=O)N1CCC[C@H]1C(=O)N[C@@H](CCCNC(=N)N)C(=O)N[C@H](C(=O)N[C@@H](CCC(=O)O)C(=O)N[C@@H](CO)C(=O)O)[C@@H](C)O)C(C)C)[C@@H](C)CC)C(C)C)[C@@H](C)CC` [LL-37], the “cell viability (lactate dehydrogenase release)” value (AGS and TMK1 cells) is reported as “unaffected”, the “inhibition of TMK1 cell proliferation ([3H]thymidine incorporation)” value (TMK1 cells; LL-37 20 μg/ml, 24 h) is reported as “about 60%” and the “inhibition of AGS cell proliferation ([3H]thymidine incorporation)” value (AGS cells) is reported as 10%.

For `CC(C)C[C@@H](C=O)NC(=O)[C@H](CC(C)C)NC(=O)[C@H](CC(C)C)NC(=O)OCc1ccccc1` [MG-132] (Cbz-Leu-Leu-Leu-aldehyde), the Smad1/5 phosphorylation [1] was “dose-dependently increased” and the “BMP4 mRNA expression” value [2] was “dose-dependently increased”.

`O=C(O)c1cc(/N=N/c2ccc(S(=O)(=O)Nc3ccccn3)cc2)ccc1O` [Sulfasalazine, sulfasalazine] was tested, and the MPO activity [3] was “did not affect”, the mucus level [3] was “did not affect” and the “number of apoptotic cells in the colonic mucosa” value [3] was “did not affect”. The “number of microorganisms in the colon” value [3] was “did not affect”.
